Values after ≈ are worked out from the molar mass of the structure shown.

Test [1] deals with Mycobacterium tuberculosis. As to the kind of experiment: Antimycobacterial activity against Mycobacterium tuberculosis H37Rv after 30 days by agar microdilution method. The test is classed as functional.
Test [2] relates to Mycobacterium tuberculosis. The test is described as follows: Antimycobacterial activity against Mycobacterium tuberculosis H37Ra after 5 days by two-fold dilution method. In kind it is functional. As to conditions: 120 h.

As a reminder, the MIC is the least concentration at which growth counts as inhibited. High values mean a need for much substance, low ones inhibition by little substance. Consider `CC1(C)CCc2cc(C(C#Cc3ccccc3)N3CCOCC3)ccc2O1` (stereo unspecified), for which the results for the MIC in test [1] and in test [2] were 12.5 µg/mL (≈ 34.6 µM) and above 12.5 µg/mL, respectively.

Consider `CC1(C)CCc2cc(C(C#Cc3ccccc3)N3CCCCC3)ccc2O1` (stereo unspecified), for which the MIC is 6.25 µg/mL (≈ 17.4 µM) in test [1] and above 12.5 µg/mL in test [2].

For `CCCCCCC#CC(c1ccc2c(c1)CCC(C)(C)O2)N1CCCCC1` (stereo unspecified), the figures for the MIC in test [1] and in test [2] were 1.56 µg/mL (≈ 4.24 µM) and above 12.5 µg/mL, respectively.

For the compound `CCCCCC#CC(c1ccc2c(c1)CCC(C)(C)O2)N1CCOCC1` (stereo unspecified), the results for the MIC in test [1] and in test [2] were 3.12 µg/mL (≈ 8.78 µM) and above 12.5 µg/mL, respectively.

Take `CCCCCCC#CC(c1ccc2c(c1)CCC(C)(C)O2)N1CCOCC1` (stereo unspecified): the MIC in test [2] is above 12.5 µg/mL.

`CCOC(=O)[C@H]1N[C@@H](c2ccc(OC)cc2)[C@@H]([N+](=O)[O-])[C@@H]1c1ccc2c(c1)CCC(C)(C)O2` (relative stereo): the MIC in test [1] and in test [2] was above 12.5 µg/mL each time.

Turning to `CCOC(=O)[C@H]1N[C@@H](c2ccccc2)[C@@H]([N+](=O)[O-])[C@@H]1c1ccc2c(c1)CCC(C)(C)O2` (relative stereo), the MIC in test [1] is 12.5 µg/mL (≈ 29.4 µM); in test [2], above 12.5 µg/mL.

On to `CCOC(=O)[C@H]1N[C@@H](c2cccc([N+](=O)[O-])c2)[C@@H]([N+](=O)[O-])[C@@H]1c1ccc2c(c1)CCC(C)(C)O2` (relative stereo), for which the results for the MIC in test [1] and in test [2] were 12.5 µg/mL (≈ 26.6 µM) and above 12.5 µg/mL, respectively.

Consider `CCOC(=O)[C@H]1N[C@@H](c2ccc(OC)cc2)[C@@]2([N+](=O)[O-])C(c3ccc(OC)cc3)Oc3ccccc3[C@@H]12` (relative stereo), for which the MIC in test [1] and in test [2] was above 12.5 µg/mL in each case.

Turning to `CCOC(=O)[C@H]1N[C@@H](c2ccc([N+](=O)[O-])cc2)[C@@]2([N+](=O)[O-])C(c3ccc(OC)cc3)Oc3ccccc3[C@@H]12` (relative stereo), the MIC in test [1] is 12.5 µg/mL (≈ 24.1 µM); in test [2], above 12.5 µg/mL.

Compound `CC[C@@H](CO)NCCN[C@@H](CC)CO` [ETHAMBUTOL] yielded an MIC in test [1] of 3.25 µg/mL (≈ 15.9 µM).

On to `NNC(=O)c1ccncc1` [ISONIAZID], for which, in test [1], the MIC is 0.75 µg/mL (≈ 5.47 µM).

For the origin of these results see ChEMBL document CHEMBL3044735, “Search of antimycobacterial activities in hybrid molecules with benzopyran skeleton” (2011).
